# Experimental data as given in patent publication US6150414A, “Compositions and methods for treating viral infections” (priority 1992, dated 2000).
# Values joined by “and” are separate entries in the source; they are usually repeats but may differ in a detail not shown here. Equal values may be shown once. Read-outs that look alike come from different tables or passages of the source.
# Experiments:
# [1] = test system: retroviruses; assay: Comparison over two in vitro and one in vivo biological assays (Example 10); conditions: for activity across assays: Example 10
# Protocol: In order to investigate the structural features of hypericin which are essential for antiretroviral activity, numerous analogs and precursors of hypericin were examined for activity in two in vitro and one in vivo biological assay.
# (§1) (1) Direct inactivation of retroviruses in vitro, performed as in Example 3 above;
# (§2) (3) In vivo inhibition of Friend Leukemia Virus Splenomegaly performed as described in Example 1 above except that the compounds were administered intravenously 1-2 hours post infection.
# [2] = test system: Friend Leukemia Virus; assay: Inhibition of Friend Leukemia Virus-induced splenomegaly in mice, compounds intraperitoneally 24 hours after virus (Example 1(a)); format: in vivo, BALB/c mice; parameters: Actual Spleen Weight / Average Spleen Weight: unit not given here; conditions: for Spleen weight: single animal, listed as PS
# How it was run: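 BALB/c mice inoculated i.v. with 10^6 FFU Friend virus (spleen homogenate); compounds given i.p. 24 h later at 100 μg once, or 50, 100, 200 μg or 2×100 μg (second dose 24–48 h after first), two mice per group. Spleens weighed at day 10; percent inhibition from average spleen weights relative to negative and positive controls.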
# [3] = test system: Friend Leukemia Virus; assay: Intravenous co-administration of pseudohypericin with Friend Leukemia Virus, splenomegaly; format: in vivo, mouse; conditions: for Spleen Weights: single animal, listed as PS
# Protocol: A different experimental design was used involving the simultaneous intravenous co-administration of Ps with the FV complex. In this case, the viral preparation was mixed with Ps at various concentrations and the mixture was injected into the mouse tail vein in a final volume of 0.5 ml. The mice were sacrificed ten days later, their spleens weighed, and the level of inhibition of splenomegaly subsequently determined.
# The effect of intravenous co-administration of pseudohypericin (diluted in PBS with 1% EtOH) with FV, on viral-induced splenomegaly.
# [4] = test system: Friend Leukemia Virus; assay: In vivo inhibition of Friend Leukemia Virus splenomegaly, intravenous 1-2 hours post infection (Example 10); parameters: species or system mice; conditions: Mus musculus, read-out: EC50 for FV-induced splenomegaly
# Protocol: as §2
# (§3) The results presented above in Table IX are presented as EC50 concentrations. These are the effective concentrations which inhibit 50% of the viruses in micromolar concentrations.
# [5] = test system: Friend Virus; assay: Friend Virus-induced splenomegaly, WIS compounds (Example 8); format: in vivo, mice; conditions: for Average % Inhibition / Average Spleen Weight / Actual Spleen Weight: Table VII; for Actual Spleen Weight: single animal
# Protocol: The effects of compositions according to the present invention on the increase in spleen size (splenomegaly) of BALB/c mice (Jackson Labs, Bar Harbor, ME) was examined. In these experiments, the virus (10^6 focus forming units--FFU) was inoculated intravenously and 100 micrograms of the compounds indicated in Table II were administered to the mice intraperitoneally 24 hours later. Each compound was administered once to two mice. The animals were sacrificed ten days later and their spleens weighed.
# As used in Table II (and subsequent Tables of this Example l(a) and (b), "average percent inhibition" is calculated as follows: [formula] wherein "ASWNC" designates "average spleen weight of negative control"; "ASWE" designates "average spleen weight of experimental (treated) subject"; and "ASWPC" designates "average spleen weight of positive control". Average spleen weight is the numerical average of spleen weights of each experimental group (in Table II each such group includes two members).
# The AAB compounds whose synthesis is described above were assayed for antiviral activity. WIS-2, -3, -4, -5 and -6 were tested to determine their biological effects on Friend Virus-induced splenomegaly using the procedure and technique set forth in Example 1 above. The assay results (three mice per group were tested each at different concentrationss of the active composition except for the PBS-negative control wherein two animals per group were used) are reported in Table VII below.
# [6] = molecular target: T1, Radiation Leukemia Virus reverse transcriptase (Radiation murine leukemia virus, UniProt P11227); assay: Radiation Leukemia Virus reverse transcriptase assay, supernatants from infected AQR cells (Examples 4 and 9); format: biochemical; conditions: for CPM: replicate
# T1 construct: the reverse transcriptase of Radiation Leukemia Virus; endogenous in cells
# Protocol: (§4) Supernatants (10 ml/tube) from B10.T(6R) cells (Meruelo et al. J. Exp. Med. 147: 470-487, 1978) chronically infected with Radiation Leukemia Virus (RadLV) were obtained by centrifugation of cells in culture at 4° C., 3500 rpm for 15 minutes. The top 2/3 of the supernatant were removed and aliquots were incubated for 30 minutes on ice with the indicated amounts of hypericin or protohypericin. […] Thereafter, supernatants were centrifuged at 100,000×g using a TI70 rotor (Beckman Instruments) for 1 hour at 4° C. The pellet was […] and analyzed for reverse transcriptase activity as follows.
# (§5) The reverse transcriptase assay was performed in a volume of 100 microliters containing the following components:
# The antiviral activity of HHA was tested using AQR (Bach and Meruelo, J. Exp. Med. 160:270-285, 1984) cells chronically infected with Radiation Leukemia Virus in the reverse transcriptase assay as described in Example 3 above.
# The assays were conducted using the same procedure as in Example 3 above, using supernatants from infected AQR cells.
# [7] = test system: virus budding in virus-producing cells; assay: In vitro inhibition of virus budding: production of defective budded virions (Example 10); format: cell-based; conditions: read-out: EC50 for production of defective budded virions
# From the text: as §3
# [8] = test system: retroviruses (virions); assay: Direct inactivation of retroviruses (virions) in vitro (Example 10); format: biochemical, Radiation Leukemia Virus; conditions: Table IX
# Protocol: as §4, §5, §1, §3
# [9] = FV 2 × 10^5 FFU, PS 80 mcg/mouse
# [10] = FV 2 × 10^5 FFU, PS 80 mcg/mouse 2 inject
# [11] = FV 10^6 FFU, PS 80 mcg/mouse 2 injections
# [12] = FV + PS 5 mcg i.v. co-administration
# [13] = FV + PS 20 mcg i.v. co-administration
# [14] = FV + PS 50 mcg i.v. co-administration
compound,measurement,setting,value
"Cc1cc(O)c2c(=O)c3c(O)cc(O)c4c5c(O)cc(O)c6c(=O)c7c(O)cc(CO)c8c1c2c(c34)c(c65)c78 [pseudohypericin, Pseudohypericin]",activity across assays,[1],high degree of activity in a more than one assay
same,median inhibition in spleen enlargement,"[2]; 80 micrograms per mouse single injection, 2×10^5 FFU",89.6%
same,inhibition of FV-induced splenomegaly / anti-retroviral activity,[2]; Example 1(a),marked decrease in the spleen enlargement capacity of the Friend Leukemia Virus
same,% Inhib,[2]; [9],81.15%
same,Net change from control,[2]; [9],0.1292
same,"Spleen weight, mean (x)",[2]; [9],0.3138 ± 0.1197 gms
same,% Inhib,[2]; [10],89.58%
same,Net change from control,[2]; [10],0.0714
same,"Spleen weight, mean (x)",[2]; [10],0.2560 ± 0.0723 gms
same,Spleen weight,[2]; [10],0.3457 gms and 0.2784 gms and 0.2208 gms and 0.1791 gms
same,Spleen weight,[2]; [9],0.4924 gms and 0.2469 gms and 0.2722 gms and 0.2438 gms
same,% Inhib,"[2]; FV 10^6 FFU, PS 80 mcg/mouse",90.70%
same,Net change from control,"[2]; FV 10^6 FFU, PS 80 mcg/mouse",0.0841
same,"Spleen weight, mean (x)","[2]; FV 10^6 FFU, PS 80 mcg/mouse",0.2687 ± 0.0621 gms
same,% Inhib,[2]; [11],93.82%
same,Net change from control,[2]; [11],0.0558
same,"Spleen weight, mean (x)",[2]; [11],0.2404 ± 0.0482 gms
same,Spleen weight,[2]; [11],0.2831 gms and 0.2761 gms and 0.2215 gms and 0.1810 gms
same,Spleen weight,"[2]; FV 10^6 FFU, PS 80 mcg/mouse",0.2457 gms and 0.3400 gms and 0.2938 gms and 0.1956 gms
same,median inhibition of splenomegaly,[2]; single injection of 80 micrograms per mouse,93.8%
same,median inhibition of splenomegaly,"[2]; two daily consecutive injections of 80 micrograms per mouse, 2×10^5 FFU",81.7%
same,median inhibition of splenomegaly,"[2]; two daily consecutive injections of 80 micrograms per mouse, 10^6 FFU",90.7%
same,"Spleen Weights, mean (x)",[3]; [12],0.3862 grams
same,Spleen Weights,[3]; [12],0.3425 grams and 0.3766 grams and 0.4005 grams and 0.4255 grams
same,% Inhibition,[3]; FV + PS 5 mcg per mouse i.v. co-administration,75.44%
same,"Spleen Weights, mean (x)",[3]; [13],0.1614 grams
same,Spleen Weights,[3]; [13],0.1655 grams and 0.1426 grams and 0.1433 grams and 0.1966 grams
same,% Inhibition,[3]; FV + PS 20 mcg per mouse i.v. co-administration,100%
same,"Spleen Weights, mean (x)",[3]; [14],0.1572 grams
same,Spleen Weights,[3]; [14],0.1830 grams and 0.1674 grams and 0.1422 grams and 0.1365 grams
same,% Inhibition,[3]; FV + PS 50 mcg per mouse i.v. co-administration,100%
same,EC50,[4],3.8 µM
"O=c1c2c(O)ccc3c4ccc(O)c5c(=O)c6c(O)cc(O)c7c8c(O)cc(O)c1c8c(c23)c(c54)c67 [WIS-3, desmethylhypericin]",Average % Inhibition,[5]; 1 microgram,24.3%
same,Average Spleen Weight,[5]; 1 microgram,0.7737
same,Actual Spleen Weight,[5]; 1 microgram,0.7527 and 0.8048 and 0.7277
same,Average % Inhibition,[5]; 10 micrograms,24.1%
same,Average Spleen Weight,[5]; 10 micrograms,0.7759
same,Actual Spleen Weight,[5]; 10 micrograms,0.7727 and 0.8108 and 0.7413
same,Average % Inhibition,[5]; 50 micrograms,34.7%
same,Average Spleen Weight,[5]; 50 micrograms,0.6921
same,Actual Spleen Weight,[5]; 50 micrograms,0.6998 and 0.6723 and 0.7041
same,Average % Inhibition,[5]; 150 micrograms,79.7%
same,Average Spleen Weight,[5]; 150 micrograms,0.3290
same,Actual Spleen Weight,[5]; 150 micrograms,0.2967 and 0.3518 and 0.3384
same,antiviral activity in splenomegaly assay,[5]; Example 8,most active compounds of the group in the splenomegaly assay
same,Average CPM,"[6]; 0.05 micrograms, Table VIII","78,424 CPM"
same,CPM,"[6]; 0.05 micrograms, Table VIII","89,170 CPM and 67,678 CPM"
same,Average CPM,"[6]; 0.1 micrograms, Table VIII","20,893 CPM"
same,CPM,"[6]; 0.1 micrograms, Table VIII","19,322 CPM and 22,464 CPM"
same,Average CPM,"[6]; 0.5 micrograms, Table VIII","2,799 CPM"
same,CPM,"[6]; 0.5 micrograms, Table VIII","2,630 CPM and 2,968 CPM"
same,Average CPM,"[6]; 1 microgram, Table VIII","24,606 CPM"
same,CPM,"[6]; 1 microgram, Table VIII","21,896 CPM and 27,316 CPM"
same,Average CPM,"[6]; 2 micrograms, Table VIII","15,467 CPM"
same,CPM,"[6]; 2 micrograms, Table VIII","14,020 CPM and 16,914 CPM"
same,Average CPM,"[6]; 5 micrograms, Table VIII","76,907 CPM"
same,CPM,"[6]; 5 micrograms, Table VIII","75,776 CPM and 78,038 CPM"
same,Average CPM,"[6]; 10 micrograms, Table VIII","119,248 CPM"
same,CPM,"[6]; 10 micrograms, Table VIII","57,512 CPM and 61,736 CPM"
same,inhibition at 0.01 mg,"[6]; 0.5 h, read-out: Average % Inhibition",85.4%
same,inhibition at 50 ng,"[6]; 0.5 h, 0.05 micrograms, Table VIII",90.4%
same,inhibition at 0.0001 mg,"[6]; 0.5 h, 0.1 micrograms, Table VIII",97.4%
same,inhibition at 0.0005 mg,"[6]; 0.5 h, 0.5 micrograms, Table VIII",99.7%
same,inhibition at 0.001 mg,"[6]; 0.5 h, 1 microgram, Table VIII",97%
same,inhibition at 0.002 mg,"[6]; 0.5 h, 2 micrograms, Table VIII",98.1%
same,inhibition at 0.005 mg,"[6]; 0.5 h, 5 micrograms, Table VIII",90.6%
same,inhibition of RadLV reverse transcriptase activity,[6]; Example 9,highest level of antiviral activity of the compounds that were tested in this assay
same,activity across assays,[1],high degree of activity in a more than one assay
same,EC50,"[7]; in vitro, Table IX",2 µM
same,EC50,[4],174 µM
same,EC50,[8],0.07 µM
"O=C(O)c1cc(O)c2c(=O)c3c(O)cc(O)c4c5c(O)cc(O)c6c(=O)c7c(O)cc(C(=O)O)c8c1c2c(c34)c(c65)c78 [WIS-1, Hypericin-dicarboxylic acid]",loss of antiviral activity relative to parent,"[1]; Example 10, structural comparison",diminished the antiviral activity
same,EC50,[7],> 100 µM
"O=C1c2ccccc2C(=C2c3ccccc3C(=O)c3ccccc32)c2ccccc21 [Compound 36, Bianthrone]",EC50,"[7]; in vitro, Table IX",> 100 µM
same,inhibition in vivo at 0.1 mg,"[2]; Mus musculus, ip, dose 2 × 100 (micrograms) i.p., Table III, read-out: Average Perdosage % Inhibition",50%
same,inhibition in vivo at 0.05 mg,"[2]; Mus musculus, ip, dose 50 (micrograms) i.p., Table III, read-out: Average Perdosage % Inhibition",52%
same,inhibition in vivo at 0.1 mg,"[2]; Mus musculus, ip, dose 100 (micrograms) i.p., Table III, read-out: Average Perdosage % Inhibition",48%
same,inhibition in vivo at 0.2 mg,"[2]; Mus musculus, ip, dose 200 (micrograms) i.p., Table III, read-out: Average Perdosage % Inhibition",57%
same,Average Spleen Weight,"[2]; dose 2 × 100 (micrograms) i.p., Table III",1.1353
same,Average Spleen Weight,"[2]; dose 50 (micrograms) i.p., Table III",1.0839
same,Average Spleen Weight,"[2]; dose 100 (micrograms) i.p., Table III",1.1575
same,Average Spleen Weight,"[2]; dose 200 (micrograms) i.p., Table III",0.9970
same,Pooled Average % Inhibition,"[2]; pooled over 50, 100, 200, 2 × 100 micrograms, Table III",52%
same,EC50,"[4]; i.v. 1-2 hours post infection, Table IX",98 µM
